Data set [1] deals with alkaline protein phosphatase. In words: Effect on alkaline protein phosphatase. It is filed as biochemical.
For a further data set, the system named is acid phosphatase. In words: Effect on acid phosphatase. It is filed as biochemical.
Another data set relates to PP2B. Nature of the data set: Effect on PP2B. Format: biochemical.
The next data set concerns isolated myocytes. In words: Isolated myocyte simulated ischemia, osmotic fragility (trypan blue) index. It is filed as cell-based, rabbit. The conditions noted are these: 10 μM fostriecin added at onset of ischemia, 120 min; untreated cells 14.3. The method, then: Isolated Myocytes: Rabbit hearts were mounted on a perfusion apparatus as described above and perfused with "high potassium/low calcium" perfusion buffer containing 125 mM NaCl, 30 mM KCl, 25 mM NaHCO3, 1.2 mM KH2 PO4, 1 mg/ml BSA, 1.2 mM MgCl2, 11 mM glucose, 0.68 mM 1-glutamine, and a complete amino acid solution (pH 7.4) for 5 minutes. Collagenase (Worthington Biochemical, Freehold, N.J.) was added at a concentration of 1.25 mg/ml and the heart was perfused for 45-60 minutes until it became soft. The heart was removed from the apparatus and minced in 5 mls of perfusion buffer containing 0.1% w/v BSA. […] Cell counts and viability were assessed by removing 10 μl aliquots, mixing with an equal volume of Tyrode's solution containing 1% trypan blue, and counting within 3-5 minutes by light microscopy. […]
To simulate ischemia, the suspension was divided into 4-6 conical Eppendorf tubes and each tube was spun lightly to form a 0.2-0.5 ml pellet of packed cells. […] Within 5 minutes, at least 300 cells were examined with an inverted stage microscope from multiple areas of the slide, and the numbers of rounded and rod-shaped cells and those stained with trypan blue recorded. […]
The percentage of stained (dead) cells was determined, and a plot of % dead cells vs. time was constructed. An index of non-survival was calculated as the area under the curve after 2 hours and presented as %-hr. […]

The test system of another data set is isolated rabbit hearts. Nature of the data set: Controlled coronary occlusion in isolated perfused (Langendorff) rabbit hearts, infarct size as % of risk zone. The following applies: for infarct size, % of the risk zone: control 33%. The procedure: New Zealand white rabbits were anesthetized with intravenous sodium pentobarbital (30 mg/kg). The trachea was intubated and mechanical ventilation was achieved. After a left thoracotomy, a snare was passed around the coronary artery and the hearts were excised quickly, mounted on a Langendorff apparatus and perfused at 75 mm Hg pressure with non-recirculating Krebs buffer containing 118.5 mM NaCl, 4.7 mM KCl, 1.2 mM MgSO4, 1.2 mM KH2 PO4, 24.8 mM NaHCO3, 2.5 mM CaCl2, and 10 mM glucose. The Krebs buffer was gassed with 95% O2 /5% CO2 resulting in a pH of 7.4-7.5. The temperature of the perfusate was maintained at 37° C.
A fluid-filled latex balloon connected to a transducer with PE240 tubing was inserted into the left ventricle. The balloon volume was adjusted to set the left ventricular diastolic pressure equal to 5-10 mm Hg at the beginning of the experiment. Total coronary artery flow was measured by timed collection of perfusate dripping from the heart with a graduated cylinder.
The coronary artery was occluded for 30 minutes and reperfused for 2 hours. Fostriecin was mixed with oxygenated perfusate in a separate reservoir to a concentration of 1 μM. Treatment was begun by opening the line from the drug-laden reservoir and closing the line from the reservoir containing pure buffer. After 2 hours of reperfusion, the coronary artery was re-occluded, and 1-10 μm zinc cadmium sulfide fluorescent particles (Duke Scientific, Palo Alto, Calif.) were infused into the perfusate to demarcate the risk zone. The heart was removed, weighed, frozen, and cut into 2 mm thick slices. The slices were thawed and stained by incubation for 20 minutes at 37° C. in 1% triphenyltetrazolium chloride (TTC) in pH 7.4 buffer. The areas of infarct (TTC negative) and risk zone (non-fluorescent under ultraviolet light) were determined by planimetry. Infarct and risk zone volumes were calculated by multiplying each area by the slice thickness and summing the products. Infarct size for each heart was expressed as a percentage of the risk zone infarcted. In an untreated rabbit heart approximately 33% of the ischemic tissue infarcts in this model.
Employing the well-characterized rabbit model described herein in Example 1, a controlled coronary occlusion was employed to induce reproducibly myocardial infarctions in isolated hearts. Defining the risk zone as the tissue normally supplied with oxygenated blood by the coronary artery before it is occluded, a 30 minute coronary occlusion produces an infarction that averages 33% of the risk zone (see data for control rabbits; FIG. 1). When the isolated hearts were treated with 1 μM fostriecin administered 15 minutes prior to the onset of ischemia and present during the 30 minute ischemic period, a significant decrease in infarct size to 9% of the risk zone was obtained (FIG. 1). This level of protection is equivalent to that seen in ischemic preconditioning (see Cohen M. V., et al., Cardiol. Rev. 3(3):137-49 (1995)), and represents a substantial decrease in the amount of myocardial tissue damaged.
Since the onset of a myocardial infarction usually cannot be predicted, a compound that provides protection when administered after the onset of ischemia is clinically far more useful than a compound that is effective only if administered before the coronary occlusion. […] The addition of 10 μM fostriecin 10 minutes after the onset of ischemia decreased infarction size to 19% of the risk zone. […]

Data set [2] has as its system a variety of protein kinases. Nature of the data set: Effect on protein kinases. Format: biochemical.

With `CC(O)(/C=C/C1CC=CC(=O)O1)C(CC(O)\C=C/C=C\C=C\CO)OP(=O)(O)O` (stereo not shown) [fostriecin], in data set [1], the “effect on alkaline protein phosphatase” value is reported as “no effect”. Moreover, in the data set on acid phosphatase, the “effect on acid phosphatase” value was “no effect”. Also, the “effect on PP2B” value in the data set with PP2B is reported as “no effect”. Moreover, in the data set with isolated myocytes, the “cell fragility index, area under the % trypan blue-positive cells vs time curve” value is 10.6 %.cndot.hr. For the same compound, the “infarct size, % of the risk zone” value in the data set with isolated rabbit hearts (1 μM fostriecin from 15 minutes prior to ischemia and during 30-minute coronary occlusion) is on record as 9 % of the risk zone; in the data set with isolated rabbit hearts (10 μM fostriecin added 10 minutes after onset of 30-minute ischemia) it was 19 % of the risk zone. In the data set on isolated rabbit hearts (Oryctolagus cuniculus, 10 min, 10 μM fostriecin added 10 minutes after onset of ischemia, read-out: infarction smaller than in untreated hearts), the inhibition at 10 µM was found to be 43%. Further, in the data set on isolated rabbit hearts (isolated rabbit heart perfused with 1 μM fostriecin), the hemodynamic effects result is reported as “No hemodynamic effects were observed”. Further, the “concentration found to provide protection” value in the data set with isolated rabbit hearts (perfused rabbit hearts) was 1 to 10 µM. For the same compound, in data set [2], the “effect on a variety of protein kinases” value is reported as “no effect”.

The values above are taken from patent US5914242A, “Method for diminishing myocardial infarction using protein phosphatase inhibitors” (priority 1997, dated 1999).
